# What was measured:
# [1] = target: recombinant DYRK1A kinase (Homo sapiens, UniProt Q13627); assay: DYRK1A kinase assay (Ser/Thr 18 peptide Z-lyte FRET); format: biochemical; conditions: DYRK1A kinase activity; 15 μM ATP, 4 μM Ser/Thr peptide 18, one hour at room temperature
# In short: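 Recombinant DYRK1A at 0.25 μg/mL was incubated 1 h at room temperature with 15 μM ATP, 4 μM Ser/Thr 18 peptide and compound, in duplicate, 11-point series from 10 μM. Phosphorylation was read by Z-lyte FRET after 1 h protease development, as the coumarin/fluorescein emission ratio converted to % phosphorylation. IC50 by non-linear regression.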
# [2] = system: Tau phosphorylation at Thr212 (pThr212); assay: Tau phosphorylation assay, phosphoTau (Thr212) AlphaLISA in HEK293T cells transfected with DYRK1A and MAPT; format: cell-based; conditions: HEK-293T; HEK293T cells transfected with human DYRK1A and MAPT; compound treatment 18-24 hours; read-out: pTau (Thr212) EC50
# Experimental: Representative compounds were screened using the assay procedure for tau phosphorylation activity described below.
# HEK293T cells (ATCC, CRL3216) cultured in DMEM (Thermo Fisher Scientific, 10566024) supplemented with 10% FBS (Corning, 35-011-CV) and Penicillin/Streptomycin (Thermo Fisher Scientific, 15140163) were seeded in a 75 cm^2 flask at 8.1×10^6 cells/flask. The HEK293T cells were then transiently transfected with 5 μg DYRK1A (NM_001396) human untagged clone (OriGene, SC314641) and 2.5 μg MAPT (441 a.a. Tau gene) (NM_005910) human untagged clone (OriGene, TP313312) using Lipofectamine 3000 (Thermo Fisher Scientific, L30000015) and incubated for 20-30 hours in a humidified incubator at 37° C. and 5% CO2. Post-incubation, HEK293T cells transfected with the DYRK1A and MAPT expression vectors were harvested and seeded in BioCoat poly-D lysine coated 96-well plates (Corning, 354461) at 3×10^4 cells/well.
# The above synthesized compounds were screened using the cell assay procedure to assess decreased Tau phosphorylation at Thr212 (pThr212) described below.
# Each compound was dissolved in DMSO (Sigma-Aldrich, D8418-100 mL) as a 10 mM stock. 10 mM stocks were serially diluted 1:3, 10-point dose-response curve and added to the cells with a final concentration ranging from 20 μM to 1.1 nM. Cell were treated with compounds in duplicate and incubated for 18-24 hours in a humidified incubator at 37° C. and 5% CO2.
# Following the overnight compound treatment, cells were lysed with 1× Alpha Surefire Ultra Lysis Buffer (Perkin Elmer, ALSU-LB-100ML) complemented with 1× Halt Phosphatase Inhibitor Cocktail (Thermo Fisher Scientific, 78427) and 1× Halt Protease Inhibitor Cocktail (Thermo Fisher Scientific, 78438). Lysates were spun down at 12,000 g for 10 min to remove any cellular debris and 5 μL of lysates were dispensed into a 384-well Opti-Plate (Perkin Elmer, 6007290) for the measurement of Tau phosphorylation in the phosphoTau (Thr212) AlphaLISA assay. Donor antibody, biotinylated HT7Tau (Thermo Fisher Scientific, MN1000B), and acceptor antibody, pThr212Tau (Thermo Fisher Scientific, 44740G) were both added to the cell lysates at a final concentration of 3 nM and incubated for 1 hour at room temperature. Following incubation of the lysates with the donor and acceptor antibodies, anti-rabbit IgG(Fc specific) AlphaLISA acceptor beads (Perkin Elmer, AL104C) were added at a 10 ug/mL final concentration and incubated for 1 hour at room temperature protected from light. Lastly, AlphaScreen streptavidin donor beads (PerkinElmer, 6760002) were added at 40 ug/mL final concentration and incubated for 1 hour at room temperature protected from light. Plates were read at Ex=[…], and Em=615 nm on the EnVision Multilabel Plate Reader (Perkin Elmer) phospho-Tau (Thr212) AlphaLISA signal was used to plot, draw the curve fitting, and determine each compound's EC50 in Prism (GraphPad).
EC50 [1],EC50 [2],SMILES
5 nM,31 nM,"CN1CCC(Nc2cnc3ccc(-c4c[nH]c5ncccc45)cc3n2)CC1 [Compound 92, N-(1-Methylpiperidin-4-yl)-7-(1H-pyrrolo[2,3-b]pyridin-3-yl) quinoxalin-2-amine]"
8 nM,396 nM,"O=C(c1cnn2ccc(-c3c[nH]c4ncccc34)cc12)N1CCC(N2CCOCC2)CC1 [Compound 107, (5-(1H-Pyrrolo[2,3-b]pyridin-3-yl)pyrazolo[1,5-a]pyridin-3-yl)(4-morpholinopiperidin-1-yl)methanone]"
12 nM,258 nM,"CN1CCN(C(=O)c2cnn3ccc(-c4c[nH]c5ncc(Cl)cc45)cc23)CC1 [Compound 215, (5-(5-Chloro-1H-pyrrolo[2,3-b]pyridin-3-yl)pyrazolo[1,5-a]pyridin-3-yl)(4-methylpiperazin-1-yl)methanone]"
47 nM,441 nM,"c1cn2cc(-c3c[nH]c4nc(C5CC5)ccc34)ccc2n1 [Compound 1498, 6-(6-Cyclopropyl-1H-pyrrolo[2,3-b]pyridin-3-yl)imidazo[1,2-a] pyridine]"
5 nM,936 nM,"Cc1nc2c(F)cc(-c3c[nH]c4nc(C5CC5)ccc34)cc2n1C1CCN(C)CC1 [Compound 1502, 6-(6-cyclopropyl-1H-pyrrolo[2,3-b]pyridin-3-yl)-4-fluoro-2-methyl-1-(1-methylpiperidin-4-yl)-1H-benzo[d]imidazole]"
29 nM,321 nM,"c1cn2nc(-c3c[nH]c4nc(C5CC5)ccc34)ccc2n1 [Compound 1508, 6-(6-Cyclopropyl-1H-pyrrolo[2,3-b]pyridin-3-yl)imidazo[1,2-b] pyridazine]"
91 nM,374 nM,"C[C@@H](NC(=O)c1cnn2ccc(-c3c[nH]c4nc(C5CC5)ccc34)cc12)C(F)(F)F [Compound 1513, (R)-5-(6-Cyclopropyl-1H-pyrrolo[2,3-b]pyridin-3-yl)-N-(1,1,1-trifluoropropan-2-yl)pyrazolo[1,5-a]pyridine-3-carboxamide]"
5 nM,82 nM,"CN1CCC(NC(=O)c2cnn3ccc(-c4c[nH]c5nc(C6CC6)ccc45)cc23)CC1 [Compound 1514, 5-(6-Cyclopropyl-1H-pyrrolo[2,3-b]pyridin-3-yl)-N-(1-methylpiperidin-4-yl)pyrazolo[1,5-a]pyridine-3-carboxamide]"
12 nM,25 nM,"O=C1NCc2cc(-c3c[nH]c4nc(C5CC5)ccc34)ccc21 [Compound 1522, 5-(6-Cyclopropyl-1H-pyrrolo[2,3-b]pyridin-3-yl)isoindolin-1-one]"
10 nM,73 nM,"O=C1NCCc2cc(-c3c[nH]c4nc(C5CC5)ccc34)ccc21 [Compound 1526, 6-(6-Cyclopropyl-1H-pyrrolo[2,3-b]pyridin-3-yl)-3,4-dihydroisoquinolin-1(2H)-one]"
4 nM,132 nM,"CN1CCC(NC(=O)c2cnn3ccc(-c4c[nH]c5nc(C6CCCC6)ccc45)cc23)CC1 [Compound 1598, 5-(6-Cyclopentyl-1H-pyrrolo[2,3-b]pyridin-3-yl)-N-(1-methylpiperidin-4-yl)pyrazolo[1,5-a]pyridine-3-carboxamide]"
6 nM,199 nM,"CN1CCC(NC(=O)c2cnn3ccc(-c4c[nH]c5nc(CC6CCC6)ccc45)cc23)CC1 [Compound 1640, 5-(6-(Cyclobutylmethyl)-1H-pyrrolo[2,3-b]pyridin-3-yl)-N-(1-methylpiperidin-4-yl)pyrazolo[1,5-a]pyridine-3-carboxamide]"

# Further lines, the compound ahead of its results:
SMILES,EC50 [1],EC50 [2]
"Cc1nc2ncc(-c3c[nH]c4ncccc34)cc2n1C(C)C [Compound 25, 1-Isopropyl-2-methyl-6-(1H-pyrrolo[2,3-b]pyridin-3-yl)-1H-imidazo[4,5-b]pyridine]",1 nM,16 nM
"Cn1cc(-c2cnn3ccc(-c4c[nH]c5ncccc45)cc23)cn1 [Compound 37, 3-(3-(1-Methyl-1H-pyrazol-4-yl)pyrazolo[1,5-a]pyridin-5-yl)-1H-pyrrolo[2,3-b]pyridine]",1 nM,6 nM
"CN1CCN(c2ccc(NC(=O)c3cnc4[nH]cc(-c5ccc6nccnc6c5)c4c3)cn2)CC1 [Compound 817, N-(6-(4-Methylpiperazin-1-yl)pyridin-3-yl)-3-(quinoxalin-6-yl)-1H-pyrrolo[2,3-b]pyridine-5-carboxamide]",8 nM,210 nM
"c1cncc(-c2cnc3[nH]cc(-c4ccc5ncccc5c4)c3c2)c1 [Compound 1194, 6-(5-(Pyridin-3-yl)-1H-pyrrolo[2,3-b]pyridin-3-yl)quinoline]",–,2 nM
"Cc1ccc2c(-c3ccc4ncccc4c3)c[nH]c2n1 [Compound 1488, 6-(6-Methyl-1H-pyrrolo[2,3-b]pyridin-3-yl)quinoline]",2 nM,39 nM
"O=C1NCCOc2cc(-c3c[nH]c4nc(C5CC5)ccc34)ccc21 [Compound 1529, 8-(6-Cyclopropyl-1H-pyrrolo[2,3-b]pyridin-3-yl)-3,4-dihydrobenzo[f][1,4] oxazepin-5(2H)-one]",28 nM,413 nM
"c1cnc2ccc(-c3c[nH]c4nc(C5CC5)ccc34)cc2c1 [Compound 1530, 6-(6-Cyclopropyl-1H-pyrrolo[2,3-b]pyridin-3-yl)quinoline]",24 nM,393 nM
"FC(F)Oc1ccc2c(-c3ccc4nccn4c3)c[nH]c2n1 [Compound 1708, 6-(6-(Difluoromethoxy)-1H-pyrrolo[2,3-b]pyridin-3-yl)imidazo[1,2-a] pyridine]",18 nM,540 nM
"CCOc1ccc2c(-c3ccc4nccn4c3)c[nH]c2n1 [Compound 1750, 6-(6-Ethoxy-1H-pyrrolo[2,3-b]pyridin-3-yl)imidazo[1,2-a]pyridine]",9 nM,210 nM
"CCOc1ccc2c(-c3ccc4ncccc4c3)c[nH]c2n1 [Compound 1782, 6-(6-Ethoxy-1H-pyrrolo[2,3-b]pyridin-3-yl)quinoline]",15 nM,305 nM
"CN1CCN(c2ccc(CNc3ccnc4[nH]cc(-c5ccc6ncccc6c5)c34)cn2)CC1 [Compound 2051, N-((6-(4-Methylpiperazin-1-yl)pyridin-3-yl)methyl)-3-(quinolin-6-yl)-1H-pyrrolo[2,3-b]pyridin-4-amine]",37 nM,–
"c1cnc2ccc(-c3c[nH]c4nccc(NCc5ccc(-n6ccnc6)nc5)c34)cc2c1 [Compound 2052, N-((6-(1H-Imidazol-1-yl)pyridin-3-yl)methyl)-3-(quinolin-6-yl)-1H-pyrrolo[2,3-b]pyridin-4-amine]",34 nM,–
"c1cnc2ccc(-c3c[nH]c4nc(OCC5CC5)ccc34)cc2c1 [Compound 2053, 6-(6-(Cyclopropylmethoxy)-1H-pyrrolo[2,3-b]pyridin-3-yl)quinoline]",76 nM,–
"c1cnc2ccc(-c3c[nH]c4nc(-c5cncs5)ccc34)cc2c1 [Compound 2055, 5-(3-(quinolin-6-yl)-1H-pyrrolo[2,3-b]pyridin-6-yl)thiazole]",37 nM,–
"CN(CC(F)F)C(=O)c1cnc2ccc(-c3c[nH]c4nc(C5CC5)ccc34)cn12 [Compound 2056, 6-(6-cyclopropyl-1H-pyrrolo[2,3-b]pyridin-3-yl)-N-(2,2-difluoroethyl)-N-methylimidazo[1,2-a]pyridine-3-carboxamide]",5 nM,–

# From US20230192686A1, “1H-PYRROLO[2,3-B]PYRIDINES AND PREPARATION AND USES THEREOF” (BioSplice Therapeutics, Inc., priority 2021, published 2023)
